Data as given in patent publication US20100305068A1, “COMPOUNDS AND METHODS FOR MODULATING PROTEIN TRAFFICKING” (priority 2006, published 2010).

tested on: pdr5 ypt1^ts cells; assay: microbe, parasite or virus in culture; assay type: cell-based, yeast; conditions: Saccharomyces cerevisiae; Table 2; lowest concentration tested giving growth above the 0 μM background; 37° C.; read-out: ypt1-ts MRC (minimal rescue concentration)
How it was run: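 Whole-cell yeast growth-rescue screen: pdr5 ypt1^ts cells (efflux pump inactivated), growth-arrested at 37° C., cultured with compounds at 37° C. Restoration of growth read by optical density.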

Structure (SMILES) | minimal effective concentration [µM]
C/C=C(\C)C(=O)O[C@@H]1c2c(ccc3ccc(=O)oc23)OC(C)(C)[C@@H]1OC(C)=O [PTERYXIN] | 6.25
COC(=O)C[C@H]1C(C)(C)C(=O)[C@@H]2CC3=C4CC(=O)O[C@@H](c5ccoc5)[C@]4(C)CCC3[C@]1(C)C2=O (stereo partly shown) [MEXICANOLIDE] | 6.25

same assay, conditions: Table 2; 0.39 μM compound; 37° C.; background (0 μM) 0.058

Structure (SMILES) | optical density, ypt1-ts, 0.39
C/C=C(\C)C(=O)O[C@@H]1c2c(ccc3ccc(=O)oc23)OC(C)(C)[C@@H]1OC(C)=O [PTERYXIN] | 0.103
COC(=O)C[C@H]1C(C)(C)C(=O)[C@@H]2CC3=C4CC(=O)O[C@@H](c5ccoc5)[C@]4(C)CCC3[C@]1(C)C2=O (stereo partly shown) [MEXICANOLIDE] | 0.092

same assay, conditions: Table 2; 0.78 μM compound; 37° C.; background (0 μM) 0.058

Structure (SMILES) | optical density, ypt1-ts, 0.78
C/C=C(\C)C(=O)O[C@@H]1c2c(ccc3ccc(=O)oc23)OC(C)(C)[C@@H]1OC(C)=O [PTERYXIN] | 0.078
COC(=O)C[C@H]1C(C)(C)C(=O)[C@@H]2CC3=C4CC(=O)O[C@@H](c5ccoc5)[C@]4(C)CCC3[C@]1(C)C2=O (stereo partly shown) [MEXICANOLIDE] | 0.069

same assay, conditions: Table 2; 1.56 μM compound; 37° C.; background (0 μM) 0.058

Structure (SMILES) | optical density, ypt1-ts, 1.56
C/C=C(\C)C(=O)O[C@@H]1c2c(ccc3ccc(=O)oc23)OC(C)(C)[C@@H]1OC(C)=O [PTERYXIN] | 0.096
COC(=O)C[C@H]1C(C)(C)C(=O)[C@@H]2CC3=C4CC(=O)O[C@@H](c5ccoc5)[C@]4(C)CCC3[C@]1(C)C2=O (stereo partly shown) [MEXICANOLIDE] | 0.076

same assay, conditions: Table 2; 3.13 μM compound; 37° C.; background (0 μM) 0.058

Structure (SMILES) | optical density, ypt1-ts, 3.13
C/C=C(\C)C(=O)O[C@@H]1c2c(ccc3ccc(=O)oc23)OC(C)(C)[C@@H]1OC(C)=O [PTERYXIN] | 0.124
COC(=O)C[C@H]1C(C)(C)C(=O)[C@@H]2CC3=C4CC(=O)O[C@@H](c5ccoc5)[C@]4(C)CCC3[C@]1(C)C2=O (stereo partly shown) [MEXICANOLIDE] | 0.105

same assay, conditions: Table 2; 6.25 μM compound; 37° C.; background (0 μM) 0.058

Structure (SMILES) | optical density, ypt1-ts, 6.25
C/C=C(\C)C(=O)O[C@@H]1c2c(ccc3ccc(=O)oc23)OC(C)(C)[C@@H]1OC(C)=O [PTERYXIN] | 0.134
COC(=O)C[C@H]1C(C)(C)C(=O)[C@@H]2CC3=C4CC(=O)O[C@@H](c5ccoc5)[C@]4(C)CCC3[C@]1(C)C2=O (stereo partly shown) [MEXICANOLIDE] | 0.216

same assay, conditions: Table 2; 12.5 μM compound; 37° C.; background (0 μM) 0.058

Structure (SMILES) | optical density, ypt1-ts, 12.5
C/C=C(\C)C(=O)O[C@@H]1c2c(ccc3ccc(=O)oc23)OC(C)(C)[C@@H]1OC(C)=O [PTERYXIN] | 0.26
COC(=O)C[C@H]1C(C)(C)C(=O)[C@@H]2CC3=C4CC(=O)O[C@@H](c5ccoc5)[C@]4(C)CCC3[C@]1(C)C2=O (stereo partly shown) [MEXICANOLIDE] | 0.377

same assay, conditions: Table 2; 25 μM compound; 37° C.; background (0 μM) 0.058

Structure (SMILES) | optical density, ypt1-ts, 25
C/C=C(\C)C(=O)O[C@@H]1c2c(ccc3ccc(=O)oc23)OC(C)(C)[C@@H]1OC(C)=O [PTERYXIN] | 0.479
COC(=O)C[C@H]1C(C)(C)C(=O)[C@@H]2CC3=C4CC(=O)O[C@@H](c5ccoc5)[C@]4(C)CCC3[C@]1(C)C2=O (stereo partly shown) [MEXICANOLIDE] | 0.573

same assay, conditions: Table 3; 3.13 uM compound; 37° C.; background (0 uM) 0.077

Structure (SMILES) | optical density, 3.13 uM
CCN(CC)CCNC(=O)c1cc(Cl)c(N)cc1OC.Cl [METO- […]- CHLORIDE, reference compound] | 0.099
COc1ccc([C@@H](C)C(=O)c2ccc(O)cc2O)cc1 [ANGOLENSIN (R)] | 0.327
CC(=O)[C@H]1CCC2C3C[C@H](C)C4=CC(=O)CC[C@]4(C)C3[C@@H](O)C[C@@]21C (stereo partly shown) [MEDRY- SONE, reference compound] | 0.114
C=C1C2CC[C@@]3(C)[C@H](c4ccoc4)OC(=O)C[C@]13O[C@H]1CC(=O)C(C)(C)[C@H](C(O)C(=O)OC)[C@@]21C (stereo partly shown) [6-HYDROXY- […] METHYL ESTER] | 0.232

same assay, conditions: Table 3; 12.5 uM compound; 37° C.; background (0 uM) 0.077

Structure (SMILES) | optical density, 12.5 uM
CCN(CC)CCNC(=O)c1cc(Cl)c(N)cc1OC.Cl [METO- […]- CHLORIDE, reference compound] | 0.158
COc1ccc([C@@H](C)C(=O)c2ccc(O)cc2O)cc1 [ANGOLENSIN (R)] | 0.652
CC(=O)[C@H]1CCC2C3C[C@H](C)C4=CC(=O)CC[C@]4(C)C3[C@@H](O)C[C@@]21C (stereo partly shown) [MEDRY- SONE, reference compound] | 0.165
C=C1C2CC[C@@]3(C)[C@H](c4ccoc4)OC(=O)C[C@]13O[C@H]1CC(=O)C(C)(C)[C@H](C(O)C(=O)OC)[C@@]21C (stereo partly shown) [6-HYDROXY- […] METHYL ESTER] | 0.561

same assay, conditions: Table 3; 50 uM compound; 37° C.; background (0 uM) 0.077

Structure (SMILES) | optical density, 50 uM
CCN(CC)CCNC(=O)c1cc(Cl)c(N)cc1OC.Cl [METO- […]- CHLORIDE, reference compound] | 0.555
COc1ccc([C@@H](C)C(=O)c2ccc(O)cc2O)cc1 [ANGOLENSIN (R)] | 0.062
CC(=O)[C@H]1CCC2C3C[C@H](C)C4=CC(=O)CC[C@]4(C)C3[C@@H](O)C[C@@]21C (stereo partly shown) [MEDRY- SONE, reference compound] | 0.266
C=C1C2CC[C@@]3(C)[C@H](c4ccoc4)OC(=O)C[C@]13O[C@H]1CC(=O)C(C)(C)[C@H](C(O)C(=O)OC)[C@@]21C (stereo partly shown) [6-HYDROXY- […] METHYL ESTER] | 0.626
